Test results from patent US20240173353A1, “UNIVERSAL CHIMERIC ANTIGEN RECEPTOR T-CELL AND APPLICATION THEREOF” (SHANGHAI IASO BIOTECHNOLOGY CO., LTD., priority 2021, published 2024).

System: NK cells
Test: CD107a release of NK cells activated by K562
Assay type: cell-based, human
Protocol: The inventor used Miltenyi human NK sorting magnetic beads to separate NK cells from human peripheral blood, and used DAKEWE NK medium to culture and expand them in vitro. On Day 8, a population of NK cells with more than 95% having positive CD56 expression could be obtained. These NK cells were taken out and treated with 0 nM, 100 nM and 200 nM dasatinib respectively for 24 hr, and then divided into two groups, one of which was not activated, and the other group was stimulated with MHC-class I molecule-deficient K562 cells for 5 hr. Then, the CD107a release of NK cells were detected in both of them.
The inventors isolated NK cells from human PBMCs, and then cultured and differentiated them in NK medium to obtain CD56-positive NK cells with a purity higher than 95%. The exploration of the threshold of NK activation with dasatinib was carried out with seven concentrations in the range of 0-50 nM, namely 0, 10, 20, 25, 30, 40 and 50 nM, and the treatment was carried out overnight. The next day, the cells were resuspended with NK medium and activated with K562. Lymphocyte activator was used as a positive control for activation, and a part of NK cells that were not activated by K562 were also kept. Two replicates were set for each group. anti-CD107a antibody and monensin were added while carrying out activation, and after co-incubation for 6 hr, the CD107a release of CD56-positive NK cells was detected by flow cytometry.
The inventors isolated NK cells from human PBMCs, and then cultured and differentiated them in NK medium to obtain CD56-positive NK cells with a purity higher than 95%. Three pretreatments were done respectively (1) absence of dasatinib pretreatment; (2) pretreatment with […] pretreatment with 50 nM dasatinib, and the cells were cultured overnight. The next day, the concentration of dasatinib was reduced, and the concentration was adjusted to 0, 7.5, 12.5, 17.5 and 25 nM respectively. […] Two replicates were set for each group.
In order to repeatedly verify that the inhibition of NK cell activation function by dasatinib has an extended effect, the inventors repeated the above experiment. […] After 4 hr of co-incubation, CD107a release from CD56 positive NK cells was detected.
The inventors used CD3-negative cells in human PBMCs, which contained more than 5% of CD56-positive NK cells. […] The next day, the cells were resuspended with NK medium and activated with K562. Lymphocyte activator was used as a positive control for activation, and a part of NK cells that were not activated by K562 were also kept. Two replicates were set for each group. anti-CD107a antibody and monensin were added while carrying out activation, and after co-incubation for 6 hr, the CD107a release of CD56-positive NK cells was detected by flow cytometry.
The inventors isolated NK cells from human PBMCs, and then cultured and differentiated them in NK medium to obtain CD56-positive NK cells with a purity higher than 95%. […] Two replicates were set for each group.

## Cc1nc(Nc2ncc(C(=O)Nc3c(C)cccc3Cl)s2)cc(N2CCN(CCO)CC2)n1 [dasatinib]
0-50 nM overnight, K562 6 hr
  concentration that effectively inhibits NK cell activation in vitro (minimum): 30 nM
24 hr treatment, K562 5 hr
  concentration enough to inhibit CD107a translocation and activation of NK cells: 100 nM
NK cells without pretreatment, 7.5 nM dasatinib 4 hr, K562
  cells still activated: about 4.4%
NK cells, 25 nM and 50 nM pretreatment, changed to 12.5, 17.5 and 25 nM, K562
  release of CD107a: lower than 1%
NK cells, 25 nM and 50 nM pretreatment, reduced to 7.5 nM, K562
  release of CD107a: lower than 1%
NK cells, 100 nM and 200 nM dasatinib 24 hr, K562 5 hr
  CD107a translocation: 2%
NK cells, pretreatment with three dasatinib concentrations (0, 25, 50 nM), reduced to 0 nM, K562
  release of CD107a: above 58%
NK cells, repeat, 50 nM pretreatment, reduced to 0 nM, K562 4 hr
  positive CD107a release: 39.7%
non-activated NK cells, 100 nM and 200 nM dasatinib 24 hr
  basal CD107a translocation: 2%
